Test results from patent US9456995B2, “Methods for inhibition of BNIP3 and prevention and treatment of ischemia reperfusion injury by tetra-O-methyl nordihydroguaiaretic acid” (THE JOHNS HOPKINS UNIVERSITY, priority 2012, dated 2016).

How the values were obtained:
[1] = test system: HL-1 mouse heart cells; test: Trypan blue exclusion assay of cell death under hypoxia or normoxia in HL-1 cells; type: cell-based; conditions: M4N at 20 μM, FIG. 2
Experimental: Cell Culture. HL-1 mouse heart cell line was a kind gift from Dr. Claycomb (LSU Health Science Centers, New Orleans La.) (Proc. Natl. Acad. Sci. U.S.A., 95: 2979-84 (1998)). HL-1 cells were cultured in Claycomb medium (Sigma, Saint Louis, Mo.) supplemented with FBS (10%), Norepinephrine (0.1 mM), L-Glutamine (2 mM), penicillin (100 units/ml) and streptomycin (100 μg/ml). Drugs were dissolved in dimethyl sulfoxide at the final concentrations in the medium less than 0.1%. When the cells were indicated to be cultured under hypoxic conditions, the cells were incubated at the oxygen concentration of 0.5% in the hypoxic chamber (BioSpherix Ltd, Lacona, N.Y.). For the Trypan blue exclusion assay, the cells were washed with PBS (−) once and resuspended in PBS (−) again. […] In about 5 to 15 minutes the numbers of both the cells without staining and the cells with staining were counted. The percentages of the number of the cells with staining to the total cell number (which equals to the number of the cells with staining and that of the cells without staining) were calculated. […] For the hypoxia treatment the cells were cultured under 0.5% oxygen concentration in a hypoxic chamber for 6 hours and returned the cells back to normoxic condition in a normal culture chamber, and then cell death was measured 18 hours later. […]

[2] = test system: HL-1 mouse heart cells; test: TUNEL assay of cell death induced by hypoxia in HL-1 cells; type: cell-based; conditions: M4N at 5-20 μM; 6 hour hypoxia (0.5% oxygen) followed with 18 hour normoxia; FIG. 1
Experimental: Cell Culture. HL-1 mouse heart cell line was a kind gift from Dr. Claycomb (LSU Health Science Centers, New Orleans La.) (Proc. Natl. Acad. Sci. U.S.A., 95: 2979-84 (1998)). HL-1 cells were cultured in Claycomb medium (Sigma, Saint Louis, Mo.) supplemented with FBS (10%), Norepinephrine (0.1 mM), L-Glutamine (2 mM), penicillin (100 units/ml) and streptomycin (100 μg/ml). Drugs were dissolved in dimethyl sulfoxide at the final concentrations in the medium less than 0.1%. When the cells were indicated to be cultured under hypoxic conditions, the cells were incubated at the oxygen concentration of 0.5% in the hypoxic chamber (BioSpherix Ltd, Lacona, N.Y.). Cell death assay. Terminal deoxynucleotidyl transferase dUTP nick end labeling (TUNEL) assay was conducted by using TUNEL apoptosis detection kits (Upstate, Temecula, Calif.), with some modifications. The cells were cultured in 12-well microwell culture dishes (Corning Inc., Corning, N.Y.). After the treatment, both the cells floating in the tissue culture medium and those attached to the bottoms of wells were collected together into plastic tubes. […] For the hypoxia treatment the cells were cultured under 0.5% oxygen concentration in a hypoxic chamber for 6 hours and returned the cells back to normoxic condition in a normal culture chamber, and then cell death was measured 18 hours later. […]

[3] = test system: BNIP3; test: BNIP3 expression by western blotting in HL-1 cells under hypoxia; type: cell-based, mouse; conditions: M4N at 10-40 μM; hypoxia for 6 hours then normoxia for 18 hours; FIG. 3
Experimental: Cell Culture. HL-1 mouse heart cell line was a kind gift from Dr. Claycomb (LSU Health Science Centers, New Orleans La.) (Proc. Natl. Acad. Sci. U.S.A., 95: 2979-84 (1998)). HL-1 cells were cultured in Claycomb medium (Sigma, Saint Louis, Mo.) supplemented with FBS (10%), Norepinephrine (0.1 mM), L-Glutamine (2 mM), penicillin (100 units/ml) and streptomycin (100 μg/ml). Drugs were dissolved in dimethyl sulfoxide at the final concentrations in the medium less than 0.1%. When the cells were indicated to be cultured under hypoxic conditions, the cells were incubated at the oxygen concentration of 0.5% in the hypoxic chamber (BioSpherix Ltd, Lacona, N.Y.). Western blotting. After cells had been grown in […] flasks and treated with reagents, the cells were washed with PBS (−) three times and suspended in RIPA buffer (150 mM NaCl, 50 mM Tris-HCl (pH 8.0), 0.1% SDS, 1% NP40, and 0.5% deoxycholate) supplemented with protease inhibitor cocktail (Calbiochem, San Diego, Calif.). The sample volumes were adjusted by the total protein amount. Protein assay was performed by Bio-Rad Protein Assay (Bio-Rad Laboratories, Inc. Hercules, Calif.). […] The signals were detected by western blot chemiluminescence reagent plus (New England Nuclear Life Science Products, Boston, Mass.). […]

[4] = test system: LNCAP cells; test: Mitochondrial metabolism and membrane potential in LNCaP cells; type: cell-based, human; conditions: data not shown
[5] = numerous clinical trials as an anticancer drug; cited from earlier work
[6] = test system: BNIP3; test: BNIP3 expression in human cancer cells (LNCaP, PC3, MCF-7, HepG2); type: cell-based
[7] = test system: mitochondrial permeability transition pore (mPTP); test: Mitochondrial permeability transition pore (mPTP) openings by confocal microscopy in HL-1 cells; type: cell-based, mouse; conditions: M4N at 5-20 μM, hypoxia 6 hours then normoxia 8 hours, data not shown
Experimental: Measurement of mitochondrial permeability transition pore (mPTP) openings. The mPTP was measured by Image-iT LIVE Mitochondria Transition Pore Assay Kit (Molecular Probes, Eugene Oreg.). The cells were first washed with Hank's Balanced Salt Solution (HBSS) with sodium bicarbonate, calcium, and magnesium that also included HEPES (10 mM), L-glutamine (2 mM) and succinate (100 μM) to support healthy mitochondrial function (modified HBSS). The cells were then labeled with calcein-AM (1.0 μM) and MitoTracker Red CMSRos dye ([…]) in modified HBSS with […] CoCl2 for 15 minutes. After the medium was changed to the normal HL-1 culture medium, the cells were treated with M4N at various concentrations (0, 5, 10, 20, 40, and 80 μM). The cells were incubated under hypoxia for 6 hours, followed with under normoxia for 8 hours. After the cells were washed with modified HBSS, they were examined by B29/Zeiss LSM 510 META laser confocal microscope (Carl Zeiss, Jena, Germany) for calcein at FITC settings and for MitoTracker at rhodamine settings.

[8] = test system: HL-1 mouse heart cells; test: UCN-01-induced cell death in HL-1 cells, Trypan blue exclusion assay; type: cell-based; conditions: M4N around 20 μM; UCN-01 (0.2 μM) for 24 hours; FIG. 4
Experimental: FIG. 4 depicts the effect of M4N on cell death induced by UCN-01 treatment in HL-1 mouse heart cells. The cells were treated with M4N followed with UCN-01 (0.2 μM) treatment for 24 hours. The cell death was measured with Trypan Blue exclusion assay. The asterisk indicates a statistically significant difference by t-test at the error rate of less than 2%. For the Trypan blue exclusion assay, the cells were washed with PBS (−) once and resuspended in PBS (−) again. One part of the resuspended cell solution was mixed with one part of 0.4% Trypan blue solution (Sigma). In about 5 to 15 minutes the numbers of both the cells without staining and the cells with staining were counted. The percentages of the number of the cells with staining to the total cell number (which equals to the number of the cells with staining and that of the cells without staining) were calculated. Effect of M4N on UCN-01-inducing cell death. Next, the effect of M4N on the cell death induced by UCN-01, an anticancer drug, in HL-1 cells (FIG. 4) was examined.

## COc1ccc(C[C@@H](C)[C@@H](C)Cc2ccc(OC)c(OC)c2)cc1OC [M4N, tetra-o-methyl nordihydroguaiaretic acid]
[1]; either 6 hour hypoxia with additional 18 hour normoxia or 24 hour hypoxia
  cell death induced by hypoxia, Trypan blue exclusion assay: reduced the cell death induced by hypoxia
[1]; normoxic condition, compared with the control
  cell death under normoxic condition, Trypan blue exclusion assay: reduced cell death compared with the control
[2]
  TUNEL-positive cell death induced by hypoxia: reduced the cell death induced by hypoxia
[3]
  BNIP3 expression (western blotting): suppressed
[4]
  mitochondrial membrane potential (ΔΨm): induce hyperpolarization of ΔΨm
  mitochondrial metabolism: suppress mitochondrial metabolism
[5]
  toxicity and safety in clinical trials: very nontoxic and safe drug
[6]; LNCaP human prostate cancer cells, internal data not shown
  BNIP3 expression at the transcription level: blocks BNIP3 expression
[6]; LNCaP, PC3, MCF-7, HepG2 cells, previously found
  expression of BNIP3 in various cancer cells: reduced the expression of BNIP3
[7]
  mPTP openings induced by hypoxia: suppressed mPTP openings induced by hypoxia
[8]
  UCN-01-mediated cell death, Trypan blue exclusion assay: reduced UCN-01-mediated cell death
